Values quoted from earlier work as cited in patent publication US12390476B2, “Multiphasic contraceptive regimen for oral combination drug formulation of progestin and estrogen” (priority 2011, dated 2025).

Conditions: compared to gestodene, desogestrel and drospirenone

## C#C[C@]1(O)CC[C@H]2[C@@H]3CCC4=CC(=O)CC[C@@H]4[C@H]3CC[C@@]21CC [LNG, levonorgestrel]
  incidence of venous thromboembolism (VTE): lowest incidence
